Results published in patent publication US7273712B2, “Methods and compositions for detecting compounds that modulate inflammatory responses” (Reddy US Therapeutics, Inc., priority 2000, dated 2007).

Columns and labels:
[1] = tested on: IL-6 secretion by endothelial cells (HMVEC); test: AGE-induced inflammatory response determined by IL-6 ELISA; assay type: cell-based, human; settings: 24 hrs
Procedure: These cell were allowed to reach >90% confluency before being subjected to experimental treatments. G-HSA was from US Biologicals. Tumor necrosis factor α (TNFα) was from R&D Systems.
HMVEC were treated with control medium or medium containing 100 ng/ml TNFα or 300 μg/ml G-HSA for 24 hrs. All treatments and controls were carried out in serum free media containing 0.2% albumin. Following treatment, cell media were collected and used for an IL-6 ELISA.
The IL-6 ELISA was carried out using human IL-6 DuoSet ELISA development kit as described by manufacturer (R&D Systems). Mouse anti-human IL-6 was used as the capture antibody (2 μg/ml) and biotinylated goat anti-human IL6 (200 ng/ml) was used as the detection antibody. The culture media were incubated with capture antibody for 2 h at room temperature in 96-well plates. The wells were washed three times with wash buffer (0.05% Tween-20 in phosphate buffered saline (PBS) pH 7.4) followed by incubation with detection antibody for 2 h at room temperature. Following three washes, the wells were incubated with Streptavidin-HRP for 20 min. Color development was read at 450 nm in a microplate reader.

[2] = tested on: MCP-1 secretion by endothelial cells (HAEC and HMVEC); test: AGE-induced inflammatory response determined by MCP-1 ELISA; assay type: cell-based, human; settings: 100 ng/ml TNFα or 300 μg/ml G-HSA, 24 hrs, vs control medium (FIG. 2)
Procedure: HAEC and HMVEC (Clonetics) were cultured and subcultured according to manufacturer in growth medium (Clonetics): basal medium containing hEGF, hydrocortisone, VEGF, HFGF-B (with heparin), long R3-IGF-1, ascorbic acid, gentamicin/amphotericin and 5% FBS. These cells were allowed to reach >90% confluency before being subjected to experimental treatments.
Cells were treated with control medium or medium containing 100 ng/ml TNFα or 300 μg/ml G-HSA for 24 hrs. All treatments and controls were carried out in serum free media containing 0.2% albumin. Following treatment, media were collected and used for the MCP-1 ELISA.
MCP-1 ELISA was carried out using a DuoSet ELISA Development System for Human MCP-1 as described by the manufacturer (R&D Systems). 2 ug/ml of mouse anti-human MCP-1 was used as the capture antibody and 100 ng/ml biotinylated goat anti-human MCP-1 was used as the detection antibody. The culture media were incubated with capture antibody for 2 h at room temperature in 96-well plates. The wells were washed three times with wash buffer (0.05% Tween-20 in phosphate buffered saline (PBS) pH 7.4) followed by incubation with detection antibody for 2 h at room temperature. Color development was read at 450 nm in a microplate reader.

## Tumor necrosis factor α [TNFα]
[1]; 100 ng/ml TNFα or 300 μg/ml G-HSA, HMVEC, vs control medium (FIG. 1)
  increase in IL-6 secretion: 147%
[1]; 100 ng/ml TNFα, serum free media containing 0.2% albumin, vs control medium
  increase in IL-6 secretion by endothelial cells: greater than 2 fold
[2]
  increase in MCP-1 secretion: 540%
